As a reminder, the IC50 is the concentration at which inhibition is half-maximal.

SMILES strings stand for the structures. Active and inactive are the calls of the source. No cut-off for these calls is given here.

Data set [1] has as its system Plasmodium falciparum. In words: Antiplasmodial activity against synchronized ring stage of chloroquine-sensitive Plasmodium falciparum 3D7 infected in human erythrocytes after 48 hrs by SYBR Green 1 dye based fluorescence assay. In kind it is functional, organism-based. The conditions noted are these: 3D7, 48 h.
A short description of data set [2]: Selectivity index, ratio of IC50 for mouse L929 cells to IC50 for synchronized ring stage of chloroquine-sensitive Plasmodium falciparum 3D7 infected in human erythrocytes. In kind it is toxicity, cell-based. The settings on record: read-out: Ratio IC50.
In data set [3] the test system is Plasmodium falciparum. In words: Synergistic antiplasmodial activity against synchronized ring stage of chloroquine-resistant Plasmodium falciparum INDO infected in human erythrocytes assessed as FIC index in presence of artemisinin. In kind it is functional.
For data set [4], the system named is Plasmodium falciparum. Briefly: Synergistic antiplasmodial activity against synchronized ring stage of chloroquine-sensitive Plasmodium falciparum 3D7 infected in human erythrocytes assessed as FIC index in presence of artemisinin. In kind it is functional.
Data set [5] has as its system Plasmodium falciparum. In words: Antiplasmodial activity against synchronized schizont stage of chloroquine-resistant Plasmodium falciparum INDO infected in human erythrocytes assessed as parasite growth inhibition at 8 uM treated for 12 hrs by Giemsa staining based microscopic analysis. In kind it is functional, organism-based.
For data set [6], the system named is Plasmodium falciparum. In words: Plasmodicidal activity against synchronized trophozoite stage of chloroquine-resistant Plasmodium falciparum INDO infected in human erythrocytes assessed as parasite killing at 8 uM treated for 18 to 24 hrs followed by compound wash out measured after 48 to 54 hrs by Giemsa staining based microscopic analysis. In kind it is functional, organism-based.

Data set [7] has as its system Plasmodium falciparum. Briefly: Synergistic antiplasmodial activity against synchronized ring stage of chloroquine-resistant Plasmodium falciparum INDO infected in human erythrocytes assessed as parasite growth inhibition at FIC90 treated for 6 to 48 hrs followed by compound wash out measured after 48 to 90 hrs in presence of chloroquine by Giemsa staining based microscopic analysis. In kind it is functional, organism-based.

Data set [8] relates to Plasmodium falciparum. Briefly: Synergistic antiplasmodial activity against synchronized trophozoite stage of chloroquine-resistant Plasmodium falciparum INDO infected in human erythrocytes assessed as parasite growth inhibition at FIC90 treated for 18 to 24 hrs followed by compound wash out measured after 48 to 54 hrs in presence of artemisinin by Giemsa staining based microscopic analysis. In kind it is functional, organism-based.

Data set [9] concerns Plasmodium falciparum. In words: Synergistic plasmodicidal activity against synchronized ring stage of chloroquine-resistant Plasmodium falciparum INDO infected in human erythrocytes assessed as parasite killing at FIC90 treated for 6 to 48 hrs followed by compound wash out measured after 48 to 90 hrs followed by compound wash out measured after 48 to 90 hrs in presence of chloroquine by Giemsa staining based microscopic analysis. In kind it is functional, organism-based.

Data set [10] relates to Plasmodium falciparum. In words: Synergistic plasmodicidal activity against synchronized ring stage of chloroquine-resistant Plasmodium falciparum INDO infected in human erythrocytes assessed as parasite killing at FIC90 treated for 6 to 48 hrs followed by compound wash out measured after 48 to 90 hrs followed by compound wash out measured after 48 to 90 hrs in presence of artemisinin by Giemsa staining based microscopic analysis. In kind it is functional, organism-based.

Data set [11] deals with Plasmodium falciparum. In words: Synergistic antiplasmodial activity against synchronized schizont stage of chloroquine-resistant Plasmodium falciparum INDO infected in human erythrocytes assessed as parasite growth inhibition at FIC90 treated for 12 hrs followed by compound wash out measured after 48 hrs in presence of artemisinin by Giemsa staining based microscopic analysis. In kind it is functional, organism-based.

In data set [12] the test system is Plasmodium falciparum. Briefly: Synergistic antiplasmodial activity against synchronized schizont stage of chloroquine-resistant Plasmodium falciparum INDO infected in human erythrocytes assessed as parasite growth inhibition at 2 times FIC100 treated for 12 hrs followed by compound wash out measured after 48 hrs in presence of chloroquine by Giemsa staining based microscopic analysis. In kind it is functional, organism-based.

For data set [13], the system named is Plasmodium falciparum. In words: Synergistic plasmodicidal activity against synchronized trophozoite stage of chloroquine-resistant Plasmodium falciparum INDO infected in human erythrocytes assessed as parasite killing at 2 times FIC100 treated for 18 to 24 hrs followed by compound wash out measured after 48 to 54 hrs followed by compound wash out measured after 48 to 54 hrs in presence of artemisinin by Giemsa staining based microscopic analysis. In kind it is functional, organism-based.

Data set [14] has as its system Plasmodium falciparum. In words: Synergistic plasmodicidal activity against synchronized schizont stage of chloroquine-resistant Plasmodium falciparum INDO infected in human erythrocytes assessed as parasite killing at 2 times FIC100 treated for 12 hrs followed by compound wash out measured after 48 hrs in presence of artemisinin by Giemsa staining based microscopic analysis. In kind it is functional, organism-based.

In data set [15] the test system is Plasmodium falciparum. Briefly: Induction of mitochondrial membrane potential loss in synchronized trophozoite stage of chloroquine-resistant Plasmodium falciparum INDO infected in human erythrocytes at 8 uM after 18 to 24 hrs by fluorescence microscopic analysis. In kind it is functional, organism-based.

`C=CCc1cc(/C=C/C(=O)c2cccc(C(=O)/C=C/c3cc(CC=C)c(OC)c(OC)c3)c2)cc(OC)c1OC`: the IC50 in data set [1] is 2.5 µM. In addition, the selectivity ratio in [2] is 8.8. Moreover, the entries for the “fractional inhibitory concentration index (FICI)” value in [3] and in data set [4] were 0.46 - 0.58 and 1.33 - 1.58, respectively. Moreover, the outcome in data set [5], in [6], in data set [7], in [8], in data set [11] and in data set [12] was Active. In data set [15], the outcome was Active. In addition, the result in [9], in data set [10], in [13] and in data set [14] was inactive.
